Experimental data taken from US20090238808A1, “Process for the identification of novel enzyme interacting compounds” (priority 2005, published 2009).

How the values were obtained:
Assay in all cases: In-lysate competition binding with kinobeads, Jurkat lysate, iTRAQ MS, relative intensity of identified proteins (Table 22)
Settings in all cases: DMSO control = 1.0
[1] = biological target: T1, proteins captured on kinobeads from Jurkat cell lysate (Homo sapiens, UniProt P06241)
T1 construct: endogenous in cells; host or cells: Jurkat clone E6-1 lysate
T1 sequence (P06241 whole entry): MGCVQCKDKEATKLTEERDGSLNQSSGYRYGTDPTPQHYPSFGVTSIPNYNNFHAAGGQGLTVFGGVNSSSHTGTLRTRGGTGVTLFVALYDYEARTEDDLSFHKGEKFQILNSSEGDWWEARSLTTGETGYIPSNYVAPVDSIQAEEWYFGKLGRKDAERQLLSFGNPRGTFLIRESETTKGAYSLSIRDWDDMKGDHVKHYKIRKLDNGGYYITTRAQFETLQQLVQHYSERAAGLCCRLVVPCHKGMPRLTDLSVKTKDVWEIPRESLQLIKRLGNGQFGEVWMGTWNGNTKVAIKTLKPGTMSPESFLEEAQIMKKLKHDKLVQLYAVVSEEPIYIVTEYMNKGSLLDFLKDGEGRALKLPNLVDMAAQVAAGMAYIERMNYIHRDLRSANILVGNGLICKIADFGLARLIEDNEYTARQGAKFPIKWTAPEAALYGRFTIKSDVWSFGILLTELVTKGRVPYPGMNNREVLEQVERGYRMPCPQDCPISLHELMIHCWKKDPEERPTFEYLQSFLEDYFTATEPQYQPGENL
Method: (§1) This example illustrates competition binding in cell lysates (see particularly the third aspect of the invention). A test compound, Bisindolylmaleimide VIII (Bis VIII, a well known kinase inhibitor; Davies et al., 2000. Specificity and mechanism of action of some commonly used protein kinase inhibitors. Biochemical Journal 351 (Pt 1): 95-105) was added to a cell lysate thereby allowing the test compound to bind to the target proteins in the lysate. Then the lysate was contacted with the kinobeads affinity matrix to capture remaining free target proteins. The proteins bound to the kinobeads matrix were then eluted with detergent-containing buffer, separated on a SDS-polyacryamide gel and analyzed by immunodetection (Western blots) or mass spectrometry detection.
(§2) For the quantitative detection of proteins by mass spectrometry proteins were eluted from the affinity matrix and subsequently separated by SDS-Polyacrylamide gel elecrophoresis. Suitable gel areas were cut out and subjected to in-gel proteolytic digestion with trypsin.
(§3) Four tryptic digest samples (corresponding to three different Bis VIII concentrations in the lysate and one DMSO control) were labeled with ITRAQ reagents and the combined samples were analyzed in a single LC-MS/MS mass spectrometry analysis followed by peak quantification in the MS/MS spectrum (Ross et al., 2004. Multiplexed protein quantitation in Saccharomyces cerevisiae using amine-reactive isobaric tagging reagents. Mol. Cell. Proteomics 3(12): 1154-1169). […] Binding curves for individual kinases are shown (FIG. 5). The relative intensity 50 (RI50) values representing the affinity of kinase-compound pairs are similar to IC50 values reported by kinase enzyme assays (Davies et al., 2000. Specificity and mechanism of action of some commonly used protein kinase inhibitors. Biochemical Journal 351 (Pt 1): 95-105).
(§4) Aliqots of Jurkat lysate (10 mg protein) were incubated with different Bis VIII concentrations for one hour at 4° C. (0.025 μM, 0.074 μM, 0.22 μM, 0.67 μM, 2.0 μM and 6.0 μM final concentration of Bis VIII). To this end Bis VIII solutions were prepared in 100% DMSO as solvent that corresponded to 200 fold desired final Bis VIII concentration (Bis VIII from Alexis Biochemicals cat. number ALX 270-056). Five μl of these solutions were added to 1 ml of lysate resulting in the indicated final concentrations. For a control experiment 5 μl of DMSO without Bis VIII were used.
(§5) To each preincubated lysate sample 40 μl of kinobeads (see example 1) were added and incubated for one hour at 4° C. During the incubation the tubes were rotated on an end-over-end shaker (Roto Shake Genie, Scientific Industries Inc.). Beads were collected by centrifugation, transfered to Mobicol-columns (MoBiTech 10055) and washed with 10 ml 1×DP buffer containing 0.4% NP40 detergent, followed by a wash with 5 ml 1×DP buffer with 0.2% NP40. To elute the bound proteins, 100 μl 2×SDS sample buffer was added, the column was heated for 30 minutes at 50° C. and the eluate was transferred to a microfuge tube by centrifugation. Proteins were then separated by SDS-Polyacrylamide electrophoresis (SDS-PAGE). The composition and preparation of buffers is described in example 2.
(§6) The peptide extracts of samples treated with different concentrations of the test compound (0.074 μM, 0.22 μM and 0.67 μM Bis VIII) and the solvent control (0.5% DMSO) were treated with different isomers of the isobaric tagging reagent (iTRAQ Reagents Multiplex Kit, part number 4352135, Applied Biosystems, Foster City, Calif., USA). The iTRAQ reagents are a set of multiplexed, amine-specific, stable isotope reagents that can label all peptides in up to four different biological samples enabling simultaneous identification and quantitation of peptides. The iTRAQ reagents were used according to instructions provided by the manufacturer. […]

[2] = biological target: T2, proteins captured on kinobeads from Jurkat cell lysate (Homo sapiens, UniProt O14976)
T2 construct: endogenous in cells; host or cells: Jurkat clone E6-1 lysate
T2 sequence (O14976 whole entry): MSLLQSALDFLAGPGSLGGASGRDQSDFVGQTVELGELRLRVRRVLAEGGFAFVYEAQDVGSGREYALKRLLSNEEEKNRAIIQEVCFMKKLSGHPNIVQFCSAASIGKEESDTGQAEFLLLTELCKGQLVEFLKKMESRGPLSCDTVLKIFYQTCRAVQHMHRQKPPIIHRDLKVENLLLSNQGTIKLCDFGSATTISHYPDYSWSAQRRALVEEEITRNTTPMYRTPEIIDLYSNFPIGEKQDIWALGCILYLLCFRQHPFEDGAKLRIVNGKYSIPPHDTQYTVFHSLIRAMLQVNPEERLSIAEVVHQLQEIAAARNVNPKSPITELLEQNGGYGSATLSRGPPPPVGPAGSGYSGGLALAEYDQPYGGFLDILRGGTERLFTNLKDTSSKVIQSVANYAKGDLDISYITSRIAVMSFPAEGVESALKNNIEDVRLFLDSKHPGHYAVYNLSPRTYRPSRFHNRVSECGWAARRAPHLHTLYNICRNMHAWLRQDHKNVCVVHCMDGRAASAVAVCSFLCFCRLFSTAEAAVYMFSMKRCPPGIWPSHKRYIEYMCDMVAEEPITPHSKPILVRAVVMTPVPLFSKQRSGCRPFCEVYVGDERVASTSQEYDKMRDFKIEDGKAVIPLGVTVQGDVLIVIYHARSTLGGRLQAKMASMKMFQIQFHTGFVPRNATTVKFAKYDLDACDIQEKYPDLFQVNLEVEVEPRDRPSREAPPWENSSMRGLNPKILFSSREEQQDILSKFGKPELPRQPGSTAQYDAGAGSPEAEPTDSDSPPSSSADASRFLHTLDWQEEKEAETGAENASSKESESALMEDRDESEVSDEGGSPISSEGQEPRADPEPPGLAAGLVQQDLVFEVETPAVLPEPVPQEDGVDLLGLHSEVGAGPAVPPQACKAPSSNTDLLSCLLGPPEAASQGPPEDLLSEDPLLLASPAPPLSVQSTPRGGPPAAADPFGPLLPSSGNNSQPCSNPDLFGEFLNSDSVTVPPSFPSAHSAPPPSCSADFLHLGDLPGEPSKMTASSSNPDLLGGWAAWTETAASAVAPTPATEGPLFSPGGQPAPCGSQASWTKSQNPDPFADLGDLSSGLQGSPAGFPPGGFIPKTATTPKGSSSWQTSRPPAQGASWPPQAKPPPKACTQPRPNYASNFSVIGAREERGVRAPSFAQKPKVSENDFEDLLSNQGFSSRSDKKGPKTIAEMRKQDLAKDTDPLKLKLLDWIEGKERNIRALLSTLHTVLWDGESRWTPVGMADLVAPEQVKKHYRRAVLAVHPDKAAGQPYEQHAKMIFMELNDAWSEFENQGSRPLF
Method: as §1, §2, §3, §4, §5, §6

[3] = biological target: T3, proteins captured on kinobeads from Jurkat cell lysate (Homo sapiens, UniProt P12931)
T3 construct: endogenous in cells; host or cells: Jurkat clone E6-1 lysate
T3 sequence (P12931 whole entry): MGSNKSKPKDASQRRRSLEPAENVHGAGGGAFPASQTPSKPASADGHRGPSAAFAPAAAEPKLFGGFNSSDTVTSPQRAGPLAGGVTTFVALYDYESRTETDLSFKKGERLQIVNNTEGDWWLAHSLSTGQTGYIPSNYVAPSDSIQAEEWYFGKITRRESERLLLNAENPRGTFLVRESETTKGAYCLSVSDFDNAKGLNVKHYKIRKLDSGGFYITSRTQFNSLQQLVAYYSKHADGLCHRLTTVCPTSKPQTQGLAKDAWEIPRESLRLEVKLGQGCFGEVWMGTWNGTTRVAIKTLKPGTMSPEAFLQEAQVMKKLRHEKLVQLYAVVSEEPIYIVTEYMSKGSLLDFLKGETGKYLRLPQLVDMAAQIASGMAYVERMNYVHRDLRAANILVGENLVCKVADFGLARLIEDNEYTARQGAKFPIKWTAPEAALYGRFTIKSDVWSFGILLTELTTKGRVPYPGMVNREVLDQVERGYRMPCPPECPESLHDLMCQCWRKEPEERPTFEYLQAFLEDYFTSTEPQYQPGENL
Method: as §1, §2, §3, §4, §5, §6

[4] = biological target: T4, proteins captured on kinobeads from Jurkat cell lysate (Homo sapiens, UniProt P41240)
T4 construct: endogenous in cells; host or cells: Jurkat clone E6-1 lysate
Method: as §1, §2, §3, §4, §5, §6

[5] = biological target: T5, proteins captured on kinobeads from Jurkat cell lysate (Homo sapiens, UniProt P45983)
T5 construct: endogenous in cells; host or cells: Jurkat clone E6-1 lysate
Method: as §1, §2, §3, §4, §5, §6

[6] = biological target: T6, proteins captured on kinobeads from Jurkat cell lysate (Homo sapiens, UniProt P50613)
T6 construct: endogenous in cells; host or cells: Jurkat clone E6-1 lysate
Method: as §1, §2, §3, §4, §5, §6

[7] = biological target: T7, proteins captured on kinobeads from Jurkat cell lysate (Homo sapiens, UniProt Q13557)
T7 construct: endogenous in cells; host or cells: Jurkat clone E6-1 lysate
Method: as §1, §2, §3, §4, §5, §6

[8] = biological target: T8, proteins captured on kinobeads from Jurkat cell lysate (Homo sapiens, UniProt P42684)
T8 construct: endogenous in cells; host or cells: Jurkat clone E6-1 lysate
T8 sequence (P42684 whole entry): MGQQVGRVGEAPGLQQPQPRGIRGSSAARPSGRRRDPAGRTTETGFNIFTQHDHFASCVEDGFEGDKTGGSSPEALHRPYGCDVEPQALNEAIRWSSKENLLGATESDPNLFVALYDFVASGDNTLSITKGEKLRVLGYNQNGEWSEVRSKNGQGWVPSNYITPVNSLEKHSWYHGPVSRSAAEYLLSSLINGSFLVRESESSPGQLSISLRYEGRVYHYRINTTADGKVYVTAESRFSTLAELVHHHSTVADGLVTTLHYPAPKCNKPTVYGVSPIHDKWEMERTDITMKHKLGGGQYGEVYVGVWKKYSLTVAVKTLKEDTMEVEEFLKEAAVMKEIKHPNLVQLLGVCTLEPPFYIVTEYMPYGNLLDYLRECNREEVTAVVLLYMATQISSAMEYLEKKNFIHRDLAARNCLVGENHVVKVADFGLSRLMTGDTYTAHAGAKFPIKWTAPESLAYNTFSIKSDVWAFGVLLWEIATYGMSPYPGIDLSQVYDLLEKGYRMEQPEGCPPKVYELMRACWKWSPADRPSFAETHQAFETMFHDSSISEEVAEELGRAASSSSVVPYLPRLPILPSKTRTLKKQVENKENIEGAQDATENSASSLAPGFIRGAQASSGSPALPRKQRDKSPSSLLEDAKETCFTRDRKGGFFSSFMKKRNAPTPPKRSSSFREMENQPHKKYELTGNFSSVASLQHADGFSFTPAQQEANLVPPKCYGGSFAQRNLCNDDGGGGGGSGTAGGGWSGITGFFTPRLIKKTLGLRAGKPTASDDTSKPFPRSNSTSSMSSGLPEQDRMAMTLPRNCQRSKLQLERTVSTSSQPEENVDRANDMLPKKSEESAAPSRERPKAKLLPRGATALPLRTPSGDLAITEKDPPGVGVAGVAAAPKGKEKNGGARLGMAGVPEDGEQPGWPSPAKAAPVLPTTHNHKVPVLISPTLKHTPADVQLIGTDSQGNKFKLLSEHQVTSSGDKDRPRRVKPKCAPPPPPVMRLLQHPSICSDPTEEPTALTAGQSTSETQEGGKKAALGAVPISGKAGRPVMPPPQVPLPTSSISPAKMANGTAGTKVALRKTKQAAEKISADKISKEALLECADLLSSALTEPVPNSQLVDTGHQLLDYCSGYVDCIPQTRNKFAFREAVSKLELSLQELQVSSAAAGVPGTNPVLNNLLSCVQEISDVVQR
Method: as §1, §2, §3, §4, §5, §6

[9] = biological target: T9, proteins captured on kinobeads from Jurkat cell lysate (Homo sapiens, UniProt O14965)
T9 construct: endogenous in cells; host or cells: Jurkat clone E6-1 lysate
Method: as §1, §2, §3, §4, §5, §6

[10] = biological target: T10, proteins captured on kinobeads from Jurkat cell lysate (Homo sapiens, UniProt Q9Y478)
T10 construct: endogenous in cells; host or cells: Jurkat clone E6-1 lysate
Method: as §1, §2, §3, §4, §5, §6

[11] = biological target: T11, proteins captured on kinobeads from Jurkat cell lysate (Homo sapiens, UniProt Q9H0K1)
T11 construct: endogenous in cells; host or cells: Jurkat clone E6-1 lysate
Method: as §1, §2, §3, §4, §5, §6

[12] = biological target: T12, proteins captured on kinobeads from Jurkat cell lysate (Homo sapiens, UniProt Q9UHD2)
T12 construct: endogenous in cells; host or cells: Jurkat clone E6-1 lysate
Method: as §1, §2, §3, §4, §5, §6

[13] = biological target: T13, proteins captured on kinobeads from Jurkat cell lysate (Homo sapiens, UniProt Q00535)
T13 construct: endogenous in cells; host or cells: Jurkat clone E6-1 lysate
T13 sequence (Q00535 whole entry): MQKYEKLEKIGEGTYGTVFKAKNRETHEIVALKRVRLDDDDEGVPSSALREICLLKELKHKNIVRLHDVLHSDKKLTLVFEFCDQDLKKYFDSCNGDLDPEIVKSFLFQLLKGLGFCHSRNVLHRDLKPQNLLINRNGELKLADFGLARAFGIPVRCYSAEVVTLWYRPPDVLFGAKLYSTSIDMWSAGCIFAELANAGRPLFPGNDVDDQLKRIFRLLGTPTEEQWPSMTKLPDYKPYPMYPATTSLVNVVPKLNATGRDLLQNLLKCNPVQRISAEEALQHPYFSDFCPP
Method: as §1, §2, §3, §4, §5, §6

[14] = biological target: T14, proteins captured on kinobeads from Jurkat cell lysate (Homo sapiens, UniProt Q08881)
T14 construct: endogenous in cells; host or cells: Jurkat clone E6-1 lysate
T14 sequence (Q08881 whole entry): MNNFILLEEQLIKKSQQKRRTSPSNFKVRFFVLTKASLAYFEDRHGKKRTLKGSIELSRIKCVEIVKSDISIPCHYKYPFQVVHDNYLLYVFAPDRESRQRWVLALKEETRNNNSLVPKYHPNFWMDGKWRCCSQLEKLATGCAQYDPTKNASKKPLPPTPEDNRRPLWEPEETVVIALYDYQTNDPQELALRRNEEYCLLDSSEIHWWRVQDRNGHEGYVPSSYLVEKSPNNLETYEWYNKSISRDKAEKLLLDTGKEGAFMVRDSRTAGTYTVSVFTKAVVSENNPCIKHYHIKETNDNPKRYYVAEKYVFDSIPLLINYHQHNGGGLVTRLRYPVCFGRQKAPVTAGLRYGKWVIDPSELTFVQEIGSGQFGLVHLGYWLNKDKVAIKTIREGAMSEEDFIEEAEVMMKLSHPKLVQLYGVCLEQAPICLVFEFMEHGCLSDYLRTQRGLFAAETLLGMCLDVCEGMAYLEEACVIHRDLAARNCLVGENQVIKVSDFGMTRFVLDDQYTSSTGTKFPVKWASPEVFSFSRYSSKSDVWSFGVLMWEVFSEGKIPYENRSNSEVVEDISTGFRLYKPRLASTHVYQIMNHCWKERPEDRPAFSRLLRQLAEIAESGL
Method: as §1, §2, §3, §4, §5, §6

[15] = biological target: T15, proteins captured on kinobeads from Jurkat cell lysate (Homo sapiens, UniProt Q13555)
T15 construct: endogenous in cells; host or cells: Jurkat clone E6-1 lysate
T15 sequence (Q13555 whole entry): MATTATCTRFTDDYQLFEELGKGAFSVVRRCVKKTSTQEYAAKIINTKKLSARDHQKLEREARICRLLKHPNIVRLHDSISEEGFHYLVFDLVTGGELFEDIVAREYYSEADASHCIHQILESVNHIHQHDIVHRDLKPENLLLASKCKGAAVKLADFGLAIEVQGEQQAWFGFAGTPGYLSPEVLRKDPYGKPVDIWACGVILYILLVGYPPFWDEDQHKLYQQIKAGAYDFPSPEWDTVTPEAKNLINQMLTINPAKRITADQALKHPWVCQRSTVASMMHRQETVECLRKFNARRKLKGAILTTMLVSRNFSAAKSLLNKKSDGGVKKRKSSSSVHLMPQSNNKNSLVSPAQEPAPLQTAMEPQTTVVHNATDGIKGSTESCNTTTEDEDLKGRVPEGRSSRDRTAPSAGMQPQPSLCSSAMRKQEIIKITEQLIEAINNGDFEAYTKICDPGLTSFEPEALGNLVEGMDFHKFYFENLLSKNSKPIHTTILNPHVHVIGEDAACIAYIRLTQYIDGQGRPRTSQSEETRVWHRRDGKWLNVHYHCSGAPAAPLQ
Method: as §1, §2, §3, §4, §5, §6

Relative Intensity, FYN ([1]; 0.074 uM in lysate): 0.91
Relative Intensity, FYN ([1]; 0.67 uM in lysate): 0.93
Relative Intensity, GAK ([2]; 0.074 uM in lysate): 0.92
Relative Intensity, GAK ([2]; 0.67 uM in lysate): 0.97
Relative Intensity, SRC ([3]; 0.074 uM in lysate): 0.93
Relative Intensity, SRC ([3]; 0.67 uM in lysate): 0.94
Relative Intensity, CSK ([4]; 0.074 uM in lysate): 0.84
Relative Intensity, CSK ([4]; 0.67 uM in lysate): 0.89
Relative Intensity, JNK1 (MAPK8) ([5]; 0.074 uM in lysate): 0.91
Relative Intensity, JNK1 (MAPK8) ([5]; 0.67 uM in lysate): 0.83
Relative Intensity, CDK7 ([6]; 0.074 uM in lysate): 1.03
Relative Intensity, CDK7 ([6]; 0.67 uM in lysate): 0.89
Relative Intensity, CaMK2d ([7]; 0.074 uM in lysate): 0.91
Relative Intensity, CaMK2d ([7]; 0.67 uM in lysate): 0.88
Relative Intensity, ARG (ABL2) ([8]; 0.074 uM in lysate): 0.96
Relative Intensity, ARG (ABL2) ([8]; 0.67 uM in lysate): 0.91
Relative Intensity, AurA (STK6) ([9]; 0.074 uM in lysate): 0.90
Relative Intensity, AurA (STK6) ([9]; 0.67 uM in lysate): 0.87
Relative Intensity, PRKAB1 ([10]; 0.074 uM in lysate): 0.91
Relative Intensity, PRKAB1 ([10]; 0.67 uM in lysate): 0.79
Relative Intensity, QIK (SNF1LK2) ([11]; 0.074 uM in lysate): 0.93
Relative Intensity, QIK (SNF1LK2) ([11]; 0.67 uM in lysate): 0.98
Relative Intensity, TBK1 ([12]; 0.074 uM in lysate): 1.05
Relative Intensity, TBK1 ([12]; 0.67 uM in lysate): 1.14
Relative Intensity, CDK5 ([13]; 0.074 uM in lysate): 0.92
Relative Intensity, CDK5 ([13]; 0.67 uM in lysate): 0.95
Relative Intensity, ITK ([14]; 0.074 uM in lysate): 0.80
Relative Intensity, ITK ([14]; 0.67 uM in lysate): 0.91
Relative Intensity, CaMK2g ([15]; 0.074 uM in lysate): 0.83
Relative Intensity, CaMK2g ([15]; 0.67 uM in lysate): 0.88
Compound: Cn1cc(C2=C(c3cn(CCCN)c4ccccc34)C(=O)NC2=O)c2ccccc21 [Bis VIII, Bisindolylmaleimide VIII]
